The test concerns C. elegans. The test is described as follows: Antimycin A treatment, adult lifespan analysis. The format is in vivo. How it is done:
During a systematic screen of a C. elegans Chromosome I RNAi library it was discovered that animals grown on bacteria expressing atp-3 double-stranded RNA lived much longer than normal (Fraser et al., Nature 408:325 (2000)). Lifespan analysis was conducted at 25° C. as described previously (Kenyon et al., Nature 366:461 (1993)). The pre-fertile period of adulthood was used as t=0 for lifespan analysis. Strains were grown at 20° C. for at least two generations before use in lifespan analysis. Statview 5.0.1 (SAS) software was used for statistical analysis and to determine means and percentiles. In all cases, p values were calculated using the logrank (Mantel-Cox) method.
OP-50 bacteria were spread onto NG plates and allowed to grow for two days at room temperature. 50 μl of 0.01 M Antimycin A (Sigma) dissolved in 100% ethanol was dropped onto bacterial lawn and allowed to dry overnight in a fume hood at room temperature. […] Animals were transferred to new Antimycin A plates every 4 days. Control worms (ethanol only) were handled in the same manner) (Table 1).

The mark [1] stands for this setting: fer-15(b26), fem-1(hc17) + 0.1 μM Antimycin A, 25° C.

Entries after “also recorded” stand apart in the source; their conditions may differ.

Regarding Antimycin A, the “effect on lifespan (words)” value is “substantially increased lifespan; also recorded: increases lifespan” (C. elegans, from hatching through adulthood or regimen not stated, listed as antimycin); “increased lifespan” (C. elegans, from hatching through adulthood or regimen not stated, listed as antimycin A); “increased lifespan” (administration to adult worms). Besides, for the setting “animals grown in the presence of 0.1 micromolar antimycin in ethanol”, the mean lifespan is given as 21 days. The “75th percentile adult lifespan” value under setting [1] worked out at 25 days. The “Mean ± s.e.m. adult lifespan” value under setting [1] amounted to 20.4 ± 0.7 days.

The values above are taken from patent publication US7794957B2, “Eukaryotic genes involved in adult lifespan regulation” (priority 2001, dated 2010).
